# Test results as given in patent US7741436B2, “Biologically active peptides and their use for repairing injured nerves” (priority 2001, dated 2010).
# What was measured:
# Format in all cases: cell-based
# human CNS neurons = assay: Attachment and neurite outgrowth of human embryonic CNS neurons on synthetic peptides coupled to glass; settings: 0.1-10 μg/ml, peptide covalently cross-linked to glass, 24 hrs
# Description: The cells were dissociated by trituration in a sterile culture medium (RPMI 1640) containing penicillin (100 U/ml), streptomycin (100 μg/ml) and 200 μM L-glutamine. The dissociated cells were plated on glass coverslips pre-coated (Liesi et al., 1989) with mouse laminin-1 (Boehringer-Mannheim, Germany) or with the peptides KDI-gc and RDIAEIIKDI-gc (SEQ ID NO: 1), as described elsewhere (Matsuzawa et al., 1996b). The peptides were from the Multiple Peptide Systems (La Jolla, Calif.). The cultures were maintained for 24 hrs, fixed in 2% paraformaldehyde, and processed for immunocytochemistry.
# Immunocytochemistry for neuron specific tubulin isoform TUJ1 was performed as described elsewhere (Liesi et al., 2001). In short, the cells were permeabilized in methanol for 5 min at −20° C., washed in PBS and incubated with monoclonal TUJ1-antibodies for 1 hr at room temperature. The antibody was of high specificity and was used at 1:500 dilution. After immunocytochemistry, the coverslips were mounted in PBS:glycerol (1:1) and viewed with Olympus Provis fluorescence microscope with appropriate filter combinations.
# [1] = test system: embryonal bodies of human CNS; assay: Attachment and neurite outgrowth of embryonal bodies on white matter of cryostat sections of adult human spinal cord (myelin influence); settings: 5-10 μg/ml
# Description: Embryonal bodies containing immature stem cells from spinal cord, or neocortex were obtained by placing the mechanically dissociated CNS-cells on 10 cm Petri dishes (Corning) in Neurobasal medium (Gibco, U.K.) with B27-supplement (Gibco, U.K.), antibiotics and 500 μM L-glutamine.
# Cryostat sections (10 μm) of adult normal human spinal cord were cut in coronal plain on SuperFrost Plus slides (Menzel, Germany). Each slide had three sections. The slides with freshly cut sections were immediately placed in sterile Quadriperm-plates (In Vitro Systems & Services, Germany) and 10 ml of culture medium was added. The culture medium was 1.0% normal adult human serum in DMEM-F12 supplemented with penicillin and streptomycin. Two embryonal bodies were placed on areas of white matter on top of each section, and the cultures were placed in the incubator with 5% CO2/95% air at 98% humidity at +37° C. The KDI peptide (Multiple Peptide Systems, La Jolla, Calif.) was added in the medium at 1-10 μg/ml, and the 10-amino acid precursor (RDIAEIIKDI (SEQ ID NO: 1)) was added at equimolar concentrations. The control cultures received no peptide. After 10 days, the cultures were fixed and immunostained for neurofilament proteins and additional neuronal and glial markers to identify the neurites and cells within the embryonal bodies. Numbers of embryonal bodies attached, and extending neurites directly on the adult white matter tissue were counted on each slide and the results analyzed using one-way-variance-analysis (ANOVA). Numbers of long neurites (>100 μm) extending from embryonal bodies in control cultures and in cultures with 5-10 μg/ml of the KDI peptide in the culture medium were counted and a non-parametric Whitney-Mann test was used to analyze those results.
# [2] = test system: rat cerebellar granule neurons; assay: Electrophysiology: voltage-clamped whole-cell patch recordings of currents induced by laminin-1-derived peptides and fusion proteins; settings: whole-cell patch clamp, neurons on laminin-1 substratum
# Text: Sixteen-day pregnant Sprague-Dawley female rats were obtained from Taconic Farms, and maintained at the animal facility of National Institute of Alcohol Abuse and Alcoholism (NTH), fed with NTH-31 diet, containing 20,000 IU/kg vitamin A after autoclaving. The rats were allowed to give birth, and cerebellar tissues of 3-day-old female pups were aseptically isolated as described previously (Matsuzawa et al., 1996a). A suspension of single cells was obtained by trypsinizing the cerebella as described elsewhere (Liesi and Wright, 1996), after which 10^5 cells were plated on 22 mm glass coverslip pre-coated with laminin-1. The cells were incubated in an atmosphere of 95% air/5% CO2 at +37° C. in RPMI 1640 culture medium supplemented with penicillin and streptomycin and 200 μM L-glutamine. After 24 hrs, the cells were used for electrophysiology.
# Recordings were done at room temperature using a List EPC-7 patch-clamp amplifier in voltage-clamped whole-cell patch configuration as described previously (Liesi and Wright, 1996). Pipettes were pulled from borosilicate glass and lightly fire polished. Experiments were performed at room temperature. Whole-cell currents were recorded on a Gould 2400S strip chart recorder. Cell membrane potential was clamped at −40 mV unless otherwise noted. All bath solutions were applied through pinch-valves that controlled the flow from multiple reservoirs to a single 200 μm ID barrel of fused silica. Standard bath solution was RPMI 1640, buffered with 10 mM HEPES (pH 7.4). The standard pipette solution contained (in mM): CsMeSO4 100, CsCl 15, BAPTA 5, HEPES 10 (pH KOH-adjusted to 7.2). Tests for reversal potentials were conducted in low K^+ bath solution containing (in mM): NaCl 150, KCl 5, CaCl2 1, HEPES 10 (pH adjusted to 7.2 with NaOH) and a high K^+ bath solution, containing (in mM): NaCl 115, KCl 40, CaCl2 1, HEPES 10 (pH adjusted to 7.2 with NaOH). All bath solutions contained 300 nM TTX. […] Nernst reversal potentials were calculated according to Hille (1992). […]
substance,measurement,setting,value
KDI,attachment and neurite outgrowth of human CNS neurons,human CNS neurons,supported attachment and neurite outgrowth
same,extension of neurofilament-positive neurites from spinal cord embryonal bodies on white matter,[1]; 10 days in vitro,long neurofilament-positive nerve fibres extend out of the embryonal bodies
same,numbers of long neurites extending from embryonal bodies onto white matter,"[1]; 10 days in vitro, p<0.0001 vs control",a large number of long neurites extended
same,numbers of embryonal bodies attached and sending out neurites on white matter,"[1]; 10 days, vs control (p<0.01) and vs P1543 (p<0.01)",significantly higher
same,induction of currents in cerebellar granule neurons,[2],induced currents
